The values that follow come from US20020183518A1, “Modulators of proteins with phosphotyrosine recognition units” (ONTOGEN CORPORATION, priority 1995, published 2002).

pIC50: −log10 of the molar value.

One assay addresses T1, PTP-1B (Homo sapiens, UniProt P18031).
T1 construct: known to encode a 321 amino acid fragment containing the PTP-1B catalytic domain and having PTPase activity; made in house; host or cells: E. coli DH5α, plasmid pGEX-3X-PTP-1B
T1 sequence (P18031 3-277 limits assumed): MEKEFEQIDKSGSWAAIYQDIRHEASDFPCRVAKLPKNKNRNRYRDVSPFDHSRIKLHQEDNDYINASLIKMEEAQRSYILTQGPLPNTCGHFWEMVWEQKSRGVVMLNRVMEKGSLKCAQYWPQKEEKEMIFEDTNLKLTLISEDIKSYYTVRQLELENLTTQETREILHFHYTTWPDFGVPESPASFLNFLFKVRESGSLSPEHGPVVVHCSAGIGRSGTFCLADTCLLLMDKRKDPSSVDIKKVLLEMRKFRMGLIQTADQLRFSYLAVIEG
Description: In vitro PTPase inhibition assay (pNPP, colorimetric), PTP-1B. Format: biochemical. Conditions: Table 9; read-out: IC50 values against PTP1B. As to the method: PTP-1B enzymatic activity of samples was assayed in microtiter plates as follows. The protein concentration of the PTP-1B enzyme preparation was determined using the Bio-Rad Protein Assay kit (Bio-Rad, Hercules Calif.). […] Reactions were mixed gently and incubated at 37° C. for 60 minutes. Enzymatic cleavage of phosphate from pNPP (a tyrosine phosphate analog) is marked by a colorimetric change in this substrate. See, e.g., Imbert et al., Biochem J., 297:163-173 (1994); Ghosh and Miller, Biochem. Biophys. Res. […] Zanke et al., Eur. J. […] To determine the enzymatic activity, absorbance readings of the reactions were measured at 405 nm using a Molecular Devices Thermomax Plate Reader (Menlo Park Calif.). […] Purified phosphatase was added to the reaction mixtures to begin the reactions; the reactions were incubated at 37° C. for 60 min. […] (for PTP-1C and PTPα assays), stopped, and colorimetrically analyzed as described above. […] First, absorbance readings from the negative control reactions were treated as a baseline and subtracted from the absorbance readings of the experimental reactions. Then, for each reaction, a percent inhibition was calculated using the following formula: […] For each inhibitor compound tested, an IC50 concentration was calculated from a best-fit computer analysis of the calculated percent inhibition for the various dilutions of the compound. PTP-1B enzymatic activity of samples was assayed in microtiter plates as follows. The protein concentration of the PTP-1B enzyme preparation was determined using the Bio-Rad Protein Assay kit (Bio-Rad, Hercules Calif.). […] Reactions were mixed gently and incubated at 37° C. for 60 minutes. Enzymatic cleavage of phosphate from pNPP (a tyrosine phosphate analog) is marked by a colorimetric change in this substrate. See, e.g., Imbert et al., Biochem J., 297:163-173 (1994); Ghosh and Miller, Biochem. Biophys. Res. […] Zanke et al., Eur. […] To determine the enzymatic activity, absorbance readings of the reactions were measured at 405 nm using a Molecular Devices Thermomax Plate Reader (Menlo Park Calif.). […] Purified phosphatase was added to the reaction mixtures to begin the reactions; the reactions were incubated at 37° C. for 60 min. […] (for PTP-1C and PTPα assays), stopped, and calorimetrically analyzed as described above. […] First, absorbance readings from the negative control reactions were treated as a baseline and subtracted from the absorbance readings of the experimental reactions. Then, for each reaction, a percent inhibition was calculated using the following formula: […] For each inhibitor compound tested, an IC50 concentration was calculated from a best-fit computer analysis of the calculated percent inhibition for the various dilutions of the compound.

The target in a further assay is T2, CD45 (Homo sapiens, UniProt P08575).
T2 construct: The PCR reaction product (2127 bp) was digested with Sma I (New England Biolabs, Beverly Mass.) to yield a 2110 bp product; made in house; host or cells: E. coli DH5α, plasmid pET24C-CD45
T2 sequence (P08575 599-1306 limits assumed): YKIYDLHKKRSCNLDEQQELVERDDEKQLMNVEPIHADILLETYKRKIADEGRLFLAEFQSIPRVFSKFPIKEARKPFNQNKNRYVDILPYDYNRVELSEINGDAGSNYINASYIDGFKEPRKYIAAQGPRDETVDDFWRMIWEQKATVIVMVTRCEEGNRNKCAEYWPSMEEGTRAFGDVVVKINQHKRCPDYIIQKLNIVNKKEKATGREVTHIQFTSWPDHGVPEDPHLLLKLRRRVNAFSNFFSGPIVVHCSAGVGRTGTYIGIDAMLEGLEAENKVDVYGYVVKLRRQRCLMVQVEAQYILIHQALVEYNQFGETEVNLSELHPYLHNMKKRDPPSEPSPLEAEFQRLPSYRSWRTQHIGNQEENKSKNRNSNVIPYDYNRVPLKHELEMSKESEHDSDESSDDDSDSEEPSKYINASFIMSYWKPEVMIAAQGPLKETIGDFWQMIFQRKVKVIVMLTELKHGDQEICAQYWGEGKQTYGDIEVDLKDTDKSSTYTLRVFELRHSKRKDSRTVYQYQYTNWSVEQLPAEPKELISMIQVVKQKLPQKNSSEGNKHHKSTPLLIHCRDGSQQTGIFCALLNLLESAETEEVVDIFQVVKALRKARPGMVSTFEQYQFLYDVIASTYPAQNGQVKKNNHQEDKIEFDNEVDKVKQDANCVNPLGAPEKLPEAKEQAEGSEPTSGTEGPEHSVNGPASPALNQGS
In words: In vitro PTPase inhibition assay (pNPP, colorimetric), CD45. The class given is biochemical. Particulars: Table 9; read-out: IC50 values against CD45. As for the experimental part: CD45 enzymatic activity of samples was assayed in microtiter plates as follows. […] Louis Mo.), and 80 ul of activity assay buffer (100 mM sodium acetate, pH 6.0, 1 mM EDTA, 0.1% Triton X-100, 15 mM bME). Reactions were mixed gently and incubated at 37° C. for 60 minutes. […] To determine the enzymatic activity, absorbance readings of the reactions were measured at 405 nm using a Molecular Devices Thermomax Plate Reader (Menlo Park Calif.). […] Purified phosphatase was added to the reaction mixtures to begin the reactions; the reactions were incubated at 37° C. for 60 min. […] (for PTP-1C and PTPα assays), stopped, and colorimetrically analyzed as described above. […] First, absorbance readings from the negative control reactions were treated as a baseline and subtracted from the absorbance readings of the experimental reactions. Then, for each reaction, a percent inhibition was calculated using the following formula: […] For each inhibitor compound tested, an IC50 concentration was calculated from a best-fit computer analysis of the calculated percent inhibition for the various dilutions of the compound. CD45 enzymatic activity of samples was assayed in microtiter plates as follows. […] Louis Mo.), and 80 ul of activity assay buffer (100 mM sodium acetate, pH 6.0, 1 mM EDTA, 0. 1% Triton X-100, 15 mM bME). Reactions were mixed gently and incubated at 37° C. for 60 minutes. […] To determine the enzymatic activity, absorbance readings of the reactions were measured at 405 nm using a Molecular Devices Thermomax Plate Reader (Menlo Park Calif.). […] Purified phosphatase was added to the reaction mixtures to begin the reactions; the reactions were incubated at 37° C. for 60 min. […] (for PTP-1C and PTPα assays), stopped, and calorimetrically analyzed as described above. […] First, absorbance readings from the negative control reactions were treated as a baseline and subtracted from the absorbance readings of the experimental reactions. Then, for each reaction, a percent inhibition was calculated using the following formula: […] For each inhibitor compound tested, an IC50 concentration was calculated from a best-fit computer analysis of the calculated percent inhibition for the various dilutions of the compound.

As a reminder, the pIC50 is the negative decadic logarithm of the IC50, by convention in mol/L. Consider `COC(=O)c1ccc2cc(-c3nc(-c4ccc(/C=C/C(=O)O)cc4)c(-c4ccc(/C=C/C(=O)O)cc4)[nH]3)[nH]c2c1` [Compound 64], for which the pIC50 on PTP-1B was 5.52; on CD45, 5.19.

Turning to `O=C(O)/C=C/c1ccc(-c2nc(-c3ccc(F)c(F)c3)[nH]c2-c2ccc(/C=C/C(=O)O)cc2)cc1` [Compound 66], the pIC50 on PTP-1B was 5.77; on CD45, 5.60.

In the case of `COc1ccc(-c2nc(-c3ccc(/C=C/C(=O)O)cc3)c(-c3ccc(/C=C/C(=O)O)cc3)[nH]2)c(C)c1C` [Compound 86], the negative-log IC50 (pIC50) on PTP-1B was 5.74; on CD45 it was 5.15.

Turning to `O=C(O)/C=C/c1ccc(-c2nc3ccc(C(=O)O)cc3nc2-c2ccc(/C=C/C(=O)O)cc2)cc1` [Compound 155], the negative logarithm of the IC50 (pIC50) on PTP-1B was 6.00; on CD45, 5.89.

Take `O=C(O)/C=C/c1ccc(-c2nc(-c3ccccc3)[nH]c2-c2ccc(/C=C/C(=O)O)cc2)cc1` [Compound 75]: the values for the negative logarithm of the IC50 (pIC50) on PTP-1B and at CD45 were 6.17 and 5.47, respectively.

Regarding `COc1ccc(-c2nc(-c3ccc(/C=C/C(=O)O)cc3)c(-c3ccc(/C=C/C(=O)O)cc3)[nH]2)cc1` [Compound 58], the pIC50 was 6.60 on PTP-1B and 6.01 at CD45.

For the compound `O=C(O)/C=C/c1ccc(-c2nc(-c3ccc4c(c3)OCO4)[nH]c2-c2ccc(/C=C/C(=O)O)cc2)cc1` [Compound 85], the pIC50 at PTP-1B was 5.82; at CD45, 5.74.

For `O=C(O)/C=C/c1ccc(-c2nc(-c3ccc(C(=O)O)cc3)[nH]c2-c2ccc(/C=C/C(=O)O)cc2)cc1` [Compound 54], the pIC50 is 7.14 on PTP-1B and 6.14 at CD45.

`O=C(O)/C=C/c1ccc(-c2nc(-c3ccc(OCc4ccccc4)cc3)[nH]c2-c2ccc(/C=C/C(=O)O)cc2)cc1` [Compound 87]: the pIC50 is 6.00 on PTP-1B and 5.96 at CD45.

Turning to `O=C(O)/C=C/c1ccc(-c2nc(-c3cccc(F)c3F)[nH]c2-c2ccc(/C=C/C(=O)O)cc2)cc1` [Compound 67], the pIC50 on PTP-1B is 6.00; at CD45 it was 5.90.

Consider `O=C(O)/C=C/c1ccc(-c2nc(-c3ccc4c(c3)OCCO4)[nH]c2-c2ccc(/C=C/C(=O)O)cc2)cc1` [Compound 71], for which the pIC50 is 6.37 on PTP-1B and 6.28 on CD45.

As to `O=C(O)/C=C/c1ccc(-c2nc(-c3ccccc3F)[nH]c2-c2ccc(/C=C/C(=O)O)cc2)cc1` [Compound 78], the pIC50 at PTP-1B is 6.10; on CD45, 5.94.

As for `N#Cc1ccc(-c2nc(-c3ccc(/C=C/C(=O)O)cc3)c(-c3ccc(/C=C/C(=O)O)cc3)[nH]2)cc1` [Compound 73], the pIC50 on PTP-1B was 6.21; at CD45, 5.55.

As to `O=C(O)/C=C/c1ccc(-c2nc3ccccc3nc2-c2ccc(/C=C/C(=O)O)cc2)cc1` [Compound 157], the pIC50 on PTP-1B is 5.26; on CD45 it was 5.82.

With `O=C(O)/C=C/c1ccc(-c2nc(-c3cccc(F)c3)[nH]c2-c2ccc(/C=C/C(=O)O)cc2)cc1` [Compound 61], the negative logarithm of the IC50 (pIC50) at PTP-1B is 6.01; at CD45, 6.02.

`O=C(O)/C=C/c1ccc(-c2nc(/C=C/c3ccccc3)[nH]c2-c2ccc(/C=C/C(=O)O)cc2)cc1` [Compound 79]: the pIC50 at PTP-1B was 5.32; on CD45, 5.09.

`Cc1ccc2nc(-c3ccc(/C=C/C(=O)O)cc3)c(-c3ccc(/C=C/C(=O)O)cc3)nc2c1` [Compound 154]: the pIC50 on PTP-1B is 5.42; on CD45, 5.61.

As for `O=C(O)/C=C/c1ccc(-c2nc(-c3cccs3)[nH]c2-c2ccc(/C=C/C(=O)O)cc2)cc1` [Compound 70], the pIC50 at PTP-1B was 6.38; on CD45, 5.72.

With `CCN(CC)c1ccc(-c2nc(-c3ccc(/C=C/C(=O)O)cc3)c(-c3ccc(/C=C/C(=O)O)cc3)[nH]2)cc1` [Compound 68], the pIC50 on PTP-1B is 6.52; on CD45, 6.06.

For `Cn1cc(-c2nc(-c3ccc(/C=C/C(=O)O)cc3)c(-c3ccc(/C=C/C(=O)O)cc3)[nH]2)c2ccccc21` [Compound 74], the negative logarithm of the IC50 (pIC50) at PTP-1B was 6.19; at CD45, 5.38.

Consider `O=C(O)/C=C/c1ccc(-c2nc(-c3ccc4ccccc4n3)[nH]c2-c2ccc(/C=C/C(=O)O)cc2)cc1` [Compound 63], for which the pIC50 was 5.77 at PTP-1B and 5.62 at CD45.

With `O=C(O)/C=C/c1ccc(-c2nc(-c3cc(F)ccc3F)[nH]c2-c2ccc(/C=C/C(=O)O)cc2)cc1` [Compound 76], the negative-log IC50 (pIC50) is 6.17 on PTP-1B and 6.03 on CD45.

With `O=C(O)/C=C/c1ccc(-c2ncn(-c3ccccc3)c2-c2ccc(/C=C/C(=O)O)cc2)cc1` [Compound 99], the pIC50 on PTP-1B is 5.82; on CD45, 5.13.

For the compound `O=C(O)/C=C/c1ccc(-c2nc(-c3ccco3)[nH]c2-c2ccc(/C=C/C(=O)O)cc2)cc1` [Compound 60], the pIC50 at PTP-1B is 6.54; on CD45, 6.00.

As for `O=C(O)/C=C/c1ccc(-c2nc3cc(Cl)c(Cl)cc3nc2-c2ccc(/C=C/C(=O)O)cc2)cc1` [Compound 153], the pIC50 on PTP-1B is 5.58; at CD45, 5.72.

For `O=C(O)/C=C/c1ccc(-c2nc(-c3ccc4c(c3)CCC4)[nH]c2-c2ccc(/C=C/C(=O)O)cc2)cc1` [Compound 89], the pIC50 at PTP-1B was 4.86; on CD45, less than 4.00.
